According to the NIST ThermoML archive (doi:10.1021/je5001523):
Numbers after ± are expanded uncertainties.

Test: mn = molality of the nth substance listed, in mol/kg
Conditions: 101 kPa, Liquid; for viscosity: Capillary tube (Ostwald / Ubbelohde) method

[Cl-].[Li+] [lithium chloride] + O
Conditions | mass density, 288.15 K [kg/m3] | mass density, 298.15 K [kg/m3] | mass density, 308.15 K [kg/m3] | mass density, 318.15 K [kg/m3] | viscosity, 288.15 K [mPa·s] | viscosity, 298.15 K [mPa·s] | viscosity, 308.15 K [mPa·s] | viscosity, 318.15 K [mPa·s]
m1 = 0.5 | 1012.05 ± 0.43 | 1009.46 ± 0.42 | 1006.13 ± 0.4 | 1002.07 ± 0.38 | 1.212 ± 0.008 | 0.94 ± 0.007 | 0.76 ± 0.006 | 0.629 ± 0.006
m1 = 1 | 1023.76 ± 0.48 | 1020.94 ± 0.47 | – | 1012.4 ± 0.43 | 1.288 ± 0.008 | 1.002 ± 0.007 | 0.802 ± 0.006 | 0.661 ± 0.006
m1 = 2 | 1045.1 ± 0.59 | 1041.17 ± 0.57 | 1036.24 ± 0.54 | 1031.32 ± 0.52 | 1.444 ± 0.009 | 1.112 ± 0.007 | 0.882 ± 0.006 | 0.724 ± 0.006
m1 = 3 | 1062.67 ± 0.67 | 1057.69 ± 0.65 | 1051.58 ± 0.62 | 1047.47 ± 0.6 | 1.586 ± 0.009 | 1.229 ± 0.008 | 0.962 ± 0.007 | 0.785 ± 0.006
